Experimental data published in patent US20200138921A1, “METHODS OF PREVENTING AND TREATING DISEASES CHARACTERIZED BY SYNAPTIC DYSFUNCTION AND NEURODEGENERATION INCLUDING ALZHEIMER'S DISEASE” (The Trustees of Columbia University in the City of New York, priority 2017, published 2020).

How the values were obtained:
[1] = system: primary hippocampal neurons; assay type: cell-based, rat; conditions: neurons 21 DIV, oAβ for 24 hours (data not shown)
Ube3A [2] = assay: Immunoprecipitation of HA-Ube3A and phospho-tyrosine immunoblot in B35 cells; assay type: cell-based, rat; conditions: B35 cells overexpressing HA-tagged Ube3A, as early as 1 hour
Protocol: Hippocampal neuron cultures from both male and female rat embryos (E17-18) were prepared following a slightly modified version of the method of Brewer et al. 1996. Hippocampal neurons were kept in culture at 37° C. with 5% CO2 in Neurobasal medium (ThermoFisher) with B27 (ThermoFisher) supplement and Glutamax (ThermoFisher) and plated at a density of 2.5×10^5 cell/ml on dishes coated with poly-D-lysine (ThermoFisher). For the experiments, neurons were used after 14-21 days in vitro (DIV). Rat neuroblastoma B35 cells were cultured and maintained in DMEM (ThermoFisher) supplemented with 10% fetal bovine serum (FBS; Invitrogen) and Glutamax (ThermoFisher).
Cells were collected and homogenized with IP lysis buffer (ThermoFisher) supplemented with Halt protease and phosphatase inhibitor (ThermoFisher). Cell extracts were incubated overnight at 4° C. with 1.0 μg HA antibody (Cell Signaling) or mouse IgG (Cell Signaling) as a negative control Immunocomplexes were incubated with magnetic beads covalently coated with protein G (Invitrogen) on a rotator for 2 hours, at 4° C. The beads were then pelleted with a magnet and washed 3 times with 1× cell lysis buffer (Cell Signaling) supplemented with complete mini protease inhibitor mixture (Roche). The immunocomplexes were resuspended in cell lysis buffer, LDS-sample buffer (Invitrogen), […] dithiothreitol (DTT), and analyzed by Western blotting. […]

c-Abl = assay: Western blot of phosphorylated c-Abl; assay type: cell-based, rat; conditions: oAβ treated vs vehicle (FIG. 4)
Text: FIG. 4A is a quantification of Western blots of phosphorylated c-Abl in vehicle treated (control) and DPH treated hippocampal neurons. FIG. 4B is a quantification of Western blots of phosphorylated Ube3A in vehicle treated (control) and DPH treated hippocampal neurons. […] FIG. 4D is a quantification from Western blots of phosphorylated Ube3A in vehicle treated (control), oAβ treated, and oAβ with STI treated hippocampal neurons. Graphs represent mean values and standard deviation. Significance determined by unpaired student's t-test in FIGS. 4A and 4B, and one-way ANOVA followed by Tukey Post Hoc multiple comparisons in FIGS. 4C and 4D.
It was hypothesized that oAβ could affect the ligase function of Ube3A. One important regulatory mechanism of Ube3A is through c-Abl-mediated phosphorylation tyrosine residue 636 (Y636), which impairs its E3 ligase activity (Chan et al. 2013). […] Since phospho-Ube3A antibodies are not available it was decided to test the hypothesis in B35 neuroblastoma cell line overexpressing HA-tagged Ube3A for immunoprecipitation.

Ube3A [3] = assay: Ube3A levels in astrocyte-enriched cultures; assay type: cell-based, rat; conditions: astrocyte-enriched cultures treated with oAβ (results not shown)
Protocol: Since Ube3A is also expressed in astrocytes (Grier et al. 2015), it was determined whether Ube3A levels were also altered in these cells.

Lfc = assay: Levels or activities of Lfc in hippocampal neurons; assay type: cell-based, rat; conditions: hippocampal neurons treated with oAβ (results not shown)
wild-type mice = assay: Morris water maze in wild-type mice; assay type: in vivo; conditions: single TOP injection 275 μg, vs PBS-injected mice
Protocol: (§1) Mice were trained to find a hidden platform in a circular pool of 1.10 m diameter located in a room with extra maze cues. The location of the platform ([…] diameter) was constant for each mouse during training and was placed 1 cm beneath the surface of the water, maintained at 24° C.±2° C. throughout the duration of the test. At the end of test, the mice were dried off and placed in a clean cage with extra paper towels to prevent hypothermia Animals were then monitored inside their cage until eating, drinking, and ambulating normally Mice were trained in sessions consisting of four trials a day for five consecutive days. Mice started from different quadrants on a random basis during each trial and all four quadrants were used on any given day. The maximum swimming time allowed on each trial was 60 seconds.
(§2) Probe trials (1 session: 1 trials/session) were conducted 24 hours after the last training trial. During the probe test the platform was removed and mice were free to swim in the pool for 60 seconds. Time spent in each quadrant was measured. Trial and probe test sessions were recorded and analyzed with a video tracking system (Noldus). After the probe, mice were tested in the visible test for two consecutive days, 2 sessions/day with 3 trials/session to assess whether the mice were able to locate a visible platform (its location varied between the three trials of the same session). […]

J20 mice [4] = assay: Morris water maze in J20 AD mice; assay type: in vivo; conditions: single TOP injection 275 μg
Text: The J20 transgenic mouse line also used in the studies expresses a mutated human APP (hAPP: K670N/M671L and V717F) under the control of the platelet-derived growth factor promoter (Mucke et al. 2000). These mice have deficits in learning and memory, inhibition of long-term potentiation, loss of dendritic spines, profuse amyloid plaques, and increased phosphorylation of the tau protein. These mice also have increased RhoA-GTP activity and progressive decrease in spinal density when treated with oligomeric Aβ. See Pozueta et al. 2013.
as §1
as §2, with “session). The ability of the mice to locate a clearly visible platform was also tested in order to exclude differences in vision, swim speed, and motivation.” for “session).”

J20 mice [5] = assay: Long-term potentiation recordings, hippocampal slices of J20 mice; assay type: in vivo; conditions: single TOP injection 275 μg, vs PBS treated J20 mice
Protocol: Long-term potentiation (LTP) recordings were performed by positioning glass electrodes filled with artificial cerebrospinal fluid (ACSF) in the CA1 stratum radiatum to record Field Excitatory Post-Synaptic Potentials (fEPSPs) evoked by local stimulation (0.1 ms) of Schaffer collateral fibers using a bipolar concentric electrode placed laterally to the recoding electrode (approximately 150 μm). Following a steady baseline of 15 minutes, potentiation was induced with three theta-burst stimulations (TBS; 15 second interval), each one involving a single train of 10 bursts at 5 Hz, where each burst was composed of four pulses at 100 Hz (strong stimulation). The fEPSP slopes following tetanic stimulation were normalized to the average of the slopes of the fEPSPs acquired during the baseline.
Controls were wild-type mice and J20 mice injected with PBS.

amyloid plaques = assay: Amyloid plaque histology (6E10) in J20 mice; assay type: in vivo; conditions: TOP treated J20 mice at 12.5 months of age vs J20 mice treated with PBS
Text: Immunolabeling was done on 30 μm brain sections from the J20 TOP treated mice and PBS treated wild-type and J20 mice. Staining was done using the anti-Aβ antibody 6E10 (Covance) and GFAP (Cell Signaling). Plaque load and astrocytosis were quantified using ImageJ. Total plaque area was expressed as a percentage of the total hippocampal area.

Row | Compound | cell death [1] | phospho-tyrosinated Ube3A (pTyr-Ube3A) (Ube3A [2]) | c-Abl phosphorylation (c-Abl) | Ube3A levels (Ube3A [3]) | levels or activities of Lfc (Lfc) | memory (Morris Water Maze) (wild-type mice) | learning (Morris water maze latency to platform) (J20 mice [4]) | memory (Morris water maze time in target quadrant) (J20 mice [4]) | motor functions or motivation (J20 mice [4]; speed and time to platform) | LTP in hippocampal slices (J20 mice [5]) | accumulation of amyloid plaques (amyloid plaques)
1 | oAβ: synthetic soluble oligomeric Aβ1-42 | No cell death | significant increase | induces | modest, but significant increase | no observation of any differences | – | – | – | – | – | –
2 | CC[C@@]1(O)C(=O)OCc2c1cc1n(c2=O)Cc2cc3c(CN(C)C)c(O)ccc3nc2-1 [TOP, topotecan] | – | – | – | – | – | significant enhancement | did not affect | significantly increased | no effect | Enhancement | approximately equal accumulation
